OGTT activity, EC50 and oral exposure data for two molecules are collected here from patent US20080312207A1, “Compounds” (priority 2004, published 2008).

pEC50: −log10 of the molar value.

The test system of one series is Zucker obese fa/fa rats. In words: Oral Glucose Tolerance Test (OGTT). The conditions noted are these: 10 mg/kg, given orally 120 minutes before glucose 2 g/kg; percent inhibition of blood glucose AUC vs vehicle. It counts as in vivo, rat. As for the experimental part:
The animals were fasted for 2 hours before use for experiments. A test compound or a vehicle was given orally 120 minutes before oral administration of a glucose solution at a dose of 2 g/kg body weight. Blood glucose levels were measured using a Accucheck glucometer from tail bled samples taken at different time points before and after administration of glucose (time course of 60 minutes). […] Percent inhibition is determined using the AUC in the vehicle-control group as zero percent inhibition.

In series [1] the target is T1, recombinant human pancreatic GLK (Homo sapiens, UniProt P35557).
T1 construct: 6-His (N); made in house; host or cells: E. coli BL21
T1 sequence (P35557 1-465): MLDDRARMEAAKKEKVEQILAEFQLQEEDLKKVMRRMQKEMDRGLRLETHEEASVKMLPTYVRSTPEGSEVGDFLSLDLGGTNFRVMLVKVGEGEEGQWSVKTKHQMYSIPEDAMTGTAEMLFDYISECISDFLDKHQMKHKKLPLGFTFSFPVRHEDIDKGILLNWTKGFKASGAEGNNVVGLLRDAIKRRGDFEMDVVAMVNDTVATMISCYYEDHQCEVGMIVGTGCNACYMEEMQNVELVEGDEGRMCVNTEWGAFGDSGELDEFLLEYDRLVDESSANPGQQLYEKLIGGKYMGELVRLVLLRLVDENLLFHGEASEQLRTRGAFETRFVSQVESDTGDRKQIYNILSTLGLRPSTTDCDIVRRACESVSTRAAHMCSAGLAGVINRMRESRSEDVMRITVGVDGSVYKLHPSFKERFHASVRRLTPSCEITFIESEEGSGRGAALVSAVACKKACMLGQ
In words: Enzymatic activity of GLK (G-6-P dehydrogenase coupled, NADP/NADPH, OD 340 nm). The class given is biochemical. To be noted: read-out: activating activity for glucokinase, EC50.

The nature of another series: Oral exposure. The class given is in vivo. To be noted: compared with Example II107 in WO 03/015774.

As a reminder, the pEC50 is the negative decadic logarithm of the EC50, by convention in mol/L.

Consider `Cc1cnc(NC(=O)c2cc(OCCc3ccsc3)cc(OC(C)C)c2)s1` [Example II107 in WO 03/015774, reference compound], for which, in the series on Zucker obese fa/fa rats, the OGTT activity entry is reported as “not active”.
For the molecule `CC(C)Oc1cc(Oc2ccc(S(C)(=O)=O)cc2)cc(C(=O)Nc2nccs2)c1` [Example 7c, 3-(1-methylethyl)oxy-5-[4-(methylsulfonyl)phenoxy]-N-1,3-thiazol-2-ylbenzamide], the pEC50 in series [1] was 7.30. In addition, the OGTT activity in the series with Zucker obese fa/fa rats came to 18%. Besides, the oral exposure entry in “Oral exposure” is recorded as “superior”.
